According to EPA's ToxValDB 9.5:
Values joined by “and” are separate entries in the source; they are usually repeats but may differ in a detail not shown here. Identical values can stand only once.

What was measured:
Canidae [1] = conditions: chronic; duration: 23 weeks; oral; gavage; Beagle
Cricetulus sp. = conditions: duration: 1 days, injection, Other
Monkey [2] = conditions: chronic, duration: 18 months
Mus musculus [3] = conditions: for LD50: acute
Oryctolagus sp. [4] = test system: Oryctolagus sp.
Rattus norvegicus [5] = conditions: for LD50: acute
Sus scrofa = conditions: chronic; duration: 123 days; dermal; Not specified
Rattus norvegicus [6] = experiment: LC0; higher = less toxic; conditions: acute; inhalation; Sprague-Dawley
Canidae [7] = conditions: repeat dose other; oral; Dog Other
Rattus norvegicus [8] = conditions: short-term; duration: 28 days; oral; drinking water; M/F; Wistar; Clinical Observation: Yellowish discoloration of fur + Food Consumption: decrease + Water Consumption: decrease + Blood Chemistry: TP …
Rattus norvegicus [9] = conditions: chronic, M/F
Homo sapiens [10] = conditions: clinical
Monkey [11] = conditions: chronic; duration: 26 weeks; inhalation; M; Cynomolgus; respiratory
Rattus norvegicus [12] = test system: Rattus norvegicus
Rattus norvegicus [13] = conditions: chronic; duration: 2 years; oral; drinking water; Gastrointestinal tract: Lesions
Homo sapiens [14] = conditions: clinical, oral
Coturnix japonica = conditions: repeat dose other; oral
Rattus norvegicus [15] = conditions: repeat dose other; oral
Monkey [16] = conditions: chronic; duration: 6 months; oral; diet; M/F; increased thyroid weight
Monkey [17] = conditions: chronic; duration: 6 months; oral; diet; Thyroid: Increased weight
Oryctolagus sp. [18] = conditions: developmental; oral; F; excessive loss of litters
Mus musculus [19] = conditions: uterotrophic, Active
Rattus norvegicus [20] = conditions: uterotrophic, Active
Oryctolagus sp. [21] = conditions: reproduction developmental; duration: 13 days; oral; gavage; Reproduction: Loss of litters
Homo sapiens [22] = conditions: clinical; oral; Cholinesterase: Decreased cholinesterase activity
Canidae [23] = conditions: subchronic; duration: 13 weeks; oral; capsule; M/F; Beagle; neurological
Rattus norvegicus [24] = experiment: FEL; higher = less toxic; conditions: short-term; duration: 10 days; inhalation; M/F; inflammation of the nasal passage
[25] = subchronic, duration: 30 days, dermal, New Zealand
[26] = chronic, duration: 18 months, oral, gavage, Sprague-Dawley
[27] = subchronic, duration: 13 weeks, inhalation, Sprague-Dawley
[28] = duration: 2 years, oral, reduced weight gain, histopathology: rats

## CS(C)=O [Dimethyl sulfoxide]
Canidae [1]
  LOAEL: 2500 mg/kg-day
Cricetulus sp.; developmental, Intraperitoneal
  NOAEL: < 5500 mg/kg-day
Cricetulus sp.; developmental, intravenous, intraperitoneal
  NOAEL: 2500 mg/kg-day
Cricetulus sp.; reproduction developmental, Intraperitoneal, F
  NOAEL: < 5500 mg/kg-day
Cricetulus sp.; reproduction developmental, intravenous, intraperitoneal, F
  NOAEL: 2500 mg/kg-day
Monkey [2]; dermal
  NOAEL: 8910 mg/kg-day
Monkey [2]; oral, gavage
  LOAEL: 8910 mg/kg-day
  NOAEL: 2970 mg/kg-day
Mus musculus [3]; dermal
  LD50: 50000 mg/kg
Mus musculus [3]; injection, intravenous
  LD50: 3100 mg/kg and 5750 mg/kg
Mus musculus [3]; oral
  LD50: ≥ 19200 mg/kg and ≤ 22000 mg/kg
Mus musculus [3]; developmental, duration: 7 days, oral, gavage, Swiss
  NOAEL: 12000 mg/kg-day
Mus musculus [3]; short-term, duration: 3 weeks, oral, gavage, Swiss
  LOAEL: 2000 mg/kg-day
Mus musculus [3]; subchronic, duration: 5 weeks, injection, Intraperitoneal, Swiss
  NOAEL: 2500 mg/kg-day
Oryctolagus sp. [4]; chronic, duration: 6 months, dermal, New Zealand
  LOAEL: 1650 mg/kg-day
Oryctolagus sp. [4]; chronic, duration: 22 weeks, dermal, New Zealand
  LOAEL: 1650 mg/kg-day
Oryctolagus sp. [4]; developmental, duration: 9 days, injection, subcutaneous
  NOAEL: 4000 mg/kg-day
Oryctolagus sp. [4]; developmental, duration: 9 days, oral, gavage
  NOAEL: 5000 mg/kg-day
Oryctolagus sp. [4]; developmental, injection, subcutaneous
  NOAEL: 4000 mg/kg-day
Oryctolagus sp. [4]; [25]
  LOAEL: 5000 mg/kg-day
  NOAEL: 1000 mg/kg-day
Oryctolagus sp. [4]; subchronic, duration: 90 days, dermal, New Zealand
  NOAEL: 2200 mg/kg-day
Rattus norvegicus [5]; dermal
  LD50: 40000 mg/kg
Rattus norvegicus [5]; injection, intravenous
  LD50: 5360 mg/kg
Rattus norvegicus [5]; oral, gavage
  LD50: 28300 mg/kg
Rattus norvegicus [5]; [26]
  LOAEL: 9900 mg/kg-day
  NOAEL: 1100 mg/kg-day
Rattus norvegicus [5]; developmental, duration: 1 days, injection, subcutaneous, Sprague-Dawley
  NOAEL: < 10200 mg/kg-day
Rattus norvegicus [5]; reproduction developmental, duration: 6 days, oral, gavage, Wistar, generation: F1
  NOAEL: 10000 mg/kg-day
Rattus norvegicus [5]; reproduction developmental, duration: 10 days, injection, Intraperitoneal, F
  NOAEL: < 2000 mg/kg-day
Rattus norvegicus [5]; reproduction developmental, oral, gavage, Sprague-Dawley, generation: F0
  NOAEL: 5000 mg/kg-day
Rattus norvegicus [5]; reproduction developmental, oral, gavage, Sprague-Dawley, generation: F1
  NOAEL: 5000 mg/kg-day
Rattus norvegicus [5]; subchronic, duration: 6 weeks, inhalation, Sprague-Dawley
  NOAEC: 0.2 mg/L
Rattus norvegicus [5]; [27]
  LOAEC: 2.78 mg/L
  NOAEC: 0.964 mg/L
Sus scrofa
  NOAEL: 825 mg/kg-day
Rattus norvegicus [6]
  LC0: > 2.9 mg/L

## C=O [Formaldehyde]
Canidae [7]
  NOAEL: 9.4 mg/kg-day
Rattus norvegicus [8]
  NOAEL: 25 mg/kg-day
Rattus norvegicus [9]; [28]
  LOAEL: 82 mg/kg-day
  NOAEL: 15 mg/kg-day
Homo sapiens [10]; duration: 2 hours, inhalation, M/F, respiratory
  LOAEL: 0.491 mg/m3
Monkey [11]
  NOAEL: 1.2 mg/m3
Rattus norvegicus [12]; chronic, duration: 2 years, oral, M/F, Wistar, gastrointestinal
  NOAEL: 15 mg/kg-day
Rattus norvegicus [12]; short-term, duration: 4 weeks, oral, drinking water, M/F, Wistar, gastrointestinal
  NOAEL: 25 mg/kg-day
Rattus norvegicus [13]
  NOAEL: 15 mg/kg-day

## CC1(C)[C@@H](O[C@H]2O[C@H](C(=O)O)[C@@H](O)[C@H](O)[C@H]2O[C@@H]2O[C@H](C(=O)O)[C@@H](O)[C@H](O)[C@H]2O)CC[C@]2(C)[C@H]3C(=O)C=C4[C@@H]5C[C@@](C)(C(=O)O)CC[C@]5(C)CC[C@@]4(C)[C@]3(C)CC[C@@H]12 [Glycyrrhizin]
Homo sapiens [14]; duration: 8 weeks, capsule, F, Inhibition of the type-2 11b-hsd, with a consequent increase in concentrations of cortisol
  NOAEL: 2 mg/kg-day

## CC(=O)[O-].CC(=O)[O-].[Pb+2] [Lead acetate]
Coturnix japonica
  LOAEL: 11.3 mg/kg-day
  NOAEL: 1.13 mg/kg-day
Rattus norvegicus [15]
  LOAEL: 80 mg/kg-day
  NOAEL: 8 mg/kg-day

## S=C([S-])NCCNC(=S)[S-].[Mn+2] [Maneb]
Monkey [16]
  LEL: 15 mg/kg-day
  NOEL: 5 mg/kg-day
Monkey [17]
  NOEL: 5 mg/kg-day

## COc1ccc(C(c2ccc(OC)cc2)C(Cl)(Cl)Cl)cc1 [Methoxychlor]
Rattus norvegicus [15]
  LOAEL: 8 mg/kg-day
  NOAEL: 4 mg/kg-day
Oryctolagus sp. [18]
  LEL: 35.5 mg/kg-day
  NOEL: 5.01 mg/kg-day
Rattus norvegicus [12]; reproduction developmental, duration: 364 days, oral, gavage, M/F, Sprague-Dawley, reproductive
  LOAEL: 5 mg/kg-day
Mus musculus [19]; duration: 3 days, oral
  LEL: 1 mg/day
Mus musculus [19]; duration: 4 days, injection, subcutaneous
  LEL: 100 mg/kg-day
Mus musculus [19]; duration: 5 days, injection, subcutaneous
  LEL: 10 mg/kg-day
Rattus norvegicus [20]; duration: 1 days, injection, intraperitoneal
  LEL: 10 mg and 5 mg/day
Rattus norvegicus [20]; duration: 1 days, oral
  LEL: 125 mg/kg-day
Rattus norvegicus [20]; duration: 4 days, injection, intraperitoneal
  LEL: 0.75 mg/kg-day
Rattus norvegicus [20]; duration: 7 days, injection, subcutaneous
  LEL: 100 mg/kg-day
Rattus norvegicus [20]; duration: 7 days, oral
  LEL: 50 mg/kg-day
Rattus norvegicus [20]; duration: 42 days, oral, diet
  LEL: 500 ppm
Rattus norvegicus [20]; duration: 98 days, oral, diet
  LEL: 1500 ppm
Oryctolagus sp. [21]
  NOEL: 5.01 mg/kg-day

## CN(C)[C@@H]1C(=O)C(C(N)=O)=C(O)[C@@]2(O)C(=O)C3=C(O)c4c(O)cccc4[C@@](C)(O)[C@H]3[C@H](O)[C@@H]12 [Oxytetracycline]
Homo sapiens [14]; Selection of resistant enterobacteriaceae
  NOEL: 0.033 mg/kg-day

## CCOP(=S)(OCC)Oc1ccc([N+](=O)[O-])cc1 [Parathion]
Homo sapiens [10]; duration: 30 days, oral, capsule, M, neurological
  NOAEL: 0.09 mg/kg-day
Rattus norvegicus [12]; subchronic, duration: 6 weeks, inhalation, whole body, M, Sprague-Dawley, neurological
  NOAEL: 0.01 mg/m3
Homo sapiens [22]
  NOAEL: 0.064 mg/kg-day

## C=C1C(CCl)(CCl)C2(Cl)C(Cl)C(Cl)C1(Cl)C2(Cl)Cl (stereo not drawn) [Toxaphene]
Rattus norvegicus [15]
  NOAEL: 8 mg/kg-day
Canidae [23]
  NOAEL: 5 mg/kg-day

## CCN(CC)CC [Triethylamine]
Rattus norvegicus [9]; duration: 28 weeks, inhalation, no effects
  NOAEL: 1020 mg/m3
Rattus norvegicus [24]
  FEL: 4140 mg/m3
